Laboratory results from US20170008876A1, “Metal Chelate Compounds for Binding to the Platelet Specific Glycoprotein IIb/IIIa” (BAYER PHARMA AKTIENGESELLSCHAFT, priority 2014, published 2017).
Read-outs that look alike come from different tables or passages of the source.

How the values were obtained:
[1] = target: human GPIIb/IIIa receptor (Homo sapiens, UniProt P05106+P08514); assay: biochemical
Description: Affinity assay: In the first step human GPIIb/IIIa purified from human platelets was immobilized on a 96-well solid plate. After 48 hours the plates were washed and the unspecific binding sites were blocked with Roti®-Block. […] In the next step, the plates were simultaneously incubated with a tritium labeled known GPIIb/IIIa binder (^3H) mixed with increasing concentrations of the novel compounds (inhibitor). […] The fraction of tritiated compound (^3H), which is not displaced by inhibitor, was measured in a microplate scintillation counter. […]
The maximum value of tritiated reference compound was determined without addition of inhibitor (n=8). […]
After one hour the plate was washed three times with phosphate-buffered saline (200 μL per well, Dulbecco's Phosphate Buffered Saline (D-PBS (+)), GIBCO®, Invitrogen). […] After 15 min at room temperature the plates were measured at the microplate scintillation counter (TopCount NXT v2.13, Perkin Elmer, Packard Instrument Company).
In the first step human glycoprotein IIb/IIIa, which is purified from human platelets, was immobilized on a 96-well solid plate. […] The fraction of tritiated reference compound, which is not displaced by inhibitor, was measured at a microplate scintillation counter. […] By means of this assay the affinities (1050 values) could be determined.

[2] = tested on: in vitro platelet-rich thrombi; assay: Magnetic resonance imaging of in vitro platelet-rich thrombi; assay type: cell-based, human; conditions: 20 min incubation, washed three times, 1.5 T 3D TSE
Description: Magnetic resonance imaging of in vitro platelet-rich thrombi and incubation solution (example 1) using a 3D turbo spin echo sequence (1.5 T, Siemens Avanto, small extremity coil, TR 1050 ms, TE 9.1 ms, 0.5×0.5×0.6 mm^3). In FIG. 2a an in vitro control thrombus without the addition of a contrast agent is shown. The signal intensity of the control thrombus is slightly higher than the surrounding medium but clearly lower than the signal of the in vitro thrombus which was incubated with Example 1 as depicted in FIG. 2b. In FIG. 2c the incubation solution with a final concentration of 10 μmol substance/L of example 1 in human plasma is represented. The signal intensity is higher than the surrounding plasma solutions in the in vitro platelet-rich thrombi 2a and 2b.
The in vitro thrombus in FIG. 2b is incubated with the solution which is depicted in FIG. 2c. After 20 min incubation period the thrombi was washed three times with plasma solution.
Magnetic resonance imaging of in vitro platelet-rich thrombi and incubation solution (Example 1) using a 3D turbo spin echo sequence (1.5 T, Siemens Avanto, small extremity coil, TR 1050 ms, TE 9.1 ms, 0.5×0.5×0.6 mm^3). In FIG. 3a an in vitro control thrombus without the addition of a contrast agent is shown. […]

[3] = tested on: thrombus; conditions: 40 min after last injection; for Gadolinium concentration: 4 repeated doses of 1 μM Gadolinium/kg bw i.v.; for thrombus/blood ratio: total dose 4 μM Gadolinium/kg bw
Description: The specific binding of the compound described in Example 1 was investigated in cynomolgus monkey (female 3.0 kg bodyweight).
The monkey was anesthetized with a mixture of Xylazin (Rompun®, Bayer HealthCare, Leverkusen, Germany), 0.12 mL/Kg and Ketamine (Ketavet®, Pfizer) 0.12 mL/Kg b.w. i.m. While the investigation, small amounts of Xylazin/Ketamine (1+1) have been injected i.m. if required. The left common carotid artery was exposed 10 min with iron-III-chloride solution (10%). Following thrombus induction the monkey received 1 μmol Gadolinium/kg bodyweight (equals 0.125 μmol molecule/kg bodyweight) i.v. Afterwards, the right carotid artery was exposed 8 min with iron-III-chloride solution (10%) and the monkey received a repeated dose of 1 μmol Gadolinium/kg bodyweight iv.
After the first two contrast media applications the right carotid artery was exposed surgically and a polyethylene-tube ([…] Polyethylene Tubing, Clay Adams, PE50), which was roughened previously by sandpaper (600—CAMI Grit designation), was inserted into the vessel, advanced into the descending aorta and was left there for 30 minutes to allow for the development of a thrombus on the rough surface of the tube. The monkey received 1 μmol Gadolinium/kg bodyweight (equals 0.125 μmol molecule/kg bodyweight) i.v. 30 min and 90 min post catheterization. 40 min after the last contrast media application the animal was sacrificed using Pentobarbital (Narcoren). The gadolinium concentrations in blood, thombus of the left and right carotis, right carotis, left carotis, jugular vein and aorta were determined using an inductively coupled plasma mass spectrometry (ICP-MS Agilent 7500a).

[4] = tested on: human activated platelets; assay: Binding of compounds to human activated platelets (Gd by ICP-MS in pellet and supernatant); assay type: cell-based
Description: For each experiment fresh blood was taken from a volunteer using 10 mL citrate-tubes (Sarstedt S-Monovette 02.1067.001, 10 mL, Citrate 3.13%). The 10 mL citrate-tubes were carefully inverted 10 times to mix blood and anticoagulant. The tubes were stored in an incubator at a temperature of 37° C. until centrifugation (Heraeus miniTherm CTT with integrated rotation- and turning device, turning speed: 19 rotations per minute, Heraeus Instruments GmbH, Hanau/Germany).
For plasma preparation tube centrifugation was carried out for 15 minutes at 1811 g at room temperature (Eppendorf, Centrifuge 5810R). To produce platelet-rich plasma blood was centrifuged 15 minutes at 201 g at room temperature. The tubes were stood for 30 min at room temperature to get a better separation. The separated platelet-rich plasma was finally centrifuged for further 3 min at 453 g to remove the remaining erythrocytes. The platelet-rich plasma was activated using a final concentration of 5 μM Adenosindiphosphate (ADP, Sigma). The activated platelet-rich plasma was incubated 20 minutes […] with different concentrations of gadolinium-labeled compound and subsequently was centrifuged 3 minutes at 1360 g. 20 μL of supernatant was taken to determine the concentration (n=3). The pellet was resuspended and washed two times with at least 750 μL plasma and subsequently was redispered in 750 μL plasma and 50 μL calciumchloride (50 μL 2%).

[5] = incubation concentration 1 μM molecule, incubation time 3 min
[6] = incubation concentration 1 μM molecule, incubation time 20 min
[7] = incubation concentration 10 μM molecule, incubation time 20 min

human GPIIb/IIIa receptor, sequence (P08514 32-887 limits assumed): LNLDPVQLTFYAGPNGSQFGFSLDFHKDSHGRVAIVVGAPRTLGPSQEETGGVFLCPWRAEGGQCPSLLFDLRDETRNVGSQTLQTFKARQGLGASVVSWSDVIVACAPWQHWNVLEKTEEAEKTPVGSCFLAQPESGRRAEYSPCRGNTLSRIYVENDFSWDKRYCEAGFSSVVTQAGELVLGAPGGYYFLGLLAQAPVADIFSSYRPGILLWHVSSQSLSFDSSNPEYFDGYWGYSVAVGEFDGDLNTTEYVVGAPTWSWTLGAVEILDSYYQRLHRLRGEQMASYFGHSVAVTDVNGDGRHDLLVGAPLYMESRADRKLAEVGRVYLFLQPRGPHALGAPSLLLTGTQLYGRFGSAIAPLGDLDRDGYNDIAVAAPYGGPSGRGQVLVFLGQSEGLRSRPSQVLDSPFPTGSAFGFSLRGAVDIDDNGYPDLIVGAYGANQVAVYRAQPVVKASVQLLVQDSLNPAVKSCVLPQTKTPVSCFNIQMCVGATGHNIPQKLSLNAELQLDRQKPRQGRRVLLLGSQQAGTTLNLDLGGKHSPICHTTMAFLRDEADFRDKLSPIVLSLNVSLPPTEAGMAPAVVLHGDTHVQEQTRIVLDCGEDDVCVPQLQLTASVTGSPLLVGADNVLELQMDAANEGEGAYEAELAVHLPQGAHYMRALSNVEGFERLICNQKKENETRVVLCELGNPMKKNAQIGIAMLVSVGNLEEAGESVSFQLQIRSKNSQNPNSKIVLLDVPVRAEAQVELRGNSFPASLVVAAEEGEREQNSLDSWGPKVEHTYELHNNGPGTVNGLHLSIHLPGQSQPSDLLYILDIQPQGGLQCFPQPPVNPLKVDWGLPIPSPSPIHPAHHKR
human GPIIb/IIIa receptor, sequence (P05106 27-788): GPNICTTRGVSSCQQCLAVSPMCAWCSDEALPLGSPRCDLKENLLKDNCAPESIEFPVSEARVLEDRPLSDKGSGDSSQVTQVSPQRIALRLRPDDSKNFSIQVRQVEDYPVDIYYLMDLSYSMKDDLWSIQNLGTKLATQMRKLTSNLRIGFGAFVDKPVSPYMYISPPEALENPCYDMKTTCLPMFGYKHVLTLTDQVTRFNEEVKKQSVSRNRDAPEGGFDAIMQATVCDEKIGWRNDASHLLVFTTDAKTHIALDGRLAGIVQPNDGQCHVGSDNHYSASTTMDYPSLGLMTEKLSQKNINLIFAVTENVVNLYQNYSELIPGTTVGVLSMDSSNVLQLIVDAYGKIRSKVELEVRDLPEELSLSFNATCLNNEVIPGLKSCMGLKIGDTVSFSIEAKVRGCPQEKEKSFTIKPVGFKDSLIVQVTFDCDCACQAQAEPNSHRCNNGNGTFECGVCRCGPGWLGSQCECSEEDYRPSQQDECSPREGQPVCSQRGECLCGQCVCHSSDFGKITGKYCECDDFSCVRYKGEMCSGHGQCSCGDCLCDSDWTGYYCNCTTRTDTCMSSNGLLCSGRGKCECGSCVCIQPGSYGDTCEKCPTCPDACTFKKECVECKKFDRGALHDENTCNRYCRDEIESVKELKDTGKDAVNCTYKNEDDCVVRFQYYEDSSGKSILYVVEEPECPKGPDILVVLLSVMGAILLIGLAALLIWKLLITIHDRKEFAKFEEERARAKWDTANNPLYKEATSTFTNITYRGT

CC(C(=O)NCC(=O)NCC(NC(=O)CNC(=O)C(C)N1CCN(CC(=O)O)CCN(CC(=O)O)CCN(CC(=O)O)CC1)C(=O)NCC(NC(=O)C(CNC(=O)CNC(=O)C(C)N1CCN(CC(=O)O)CCN(CC(=O)O)CCN(CC(=O)O)CC1)NC(=O)CNC(=O)C(C)N1CCN(CC(=O)O)CCN(CC(=O)O)CCN(CC(=O)O)CC1)C(=O)NCC(NC(=O)C(CNC(=O)C(CNC(=O)CNC(=O)C(C)N1CCN(CC(=O)O)CCN(CC(=O)O)CCN(CC(=O)O)CC1)NC(=O)CNC(=O)C(C)N1CCN(CC(=O)O)CCN(CC(=O)O)CCN(CC(=O)O)CC1)NC(=O)C(CNC(=O)CNC(=O)C(C)N1CCN(CC(=O)O)CCN(CC(=O)O)CCN(CC(=O)O)CC1)NC(=O)CNC(=O)C(C)N1CCN(CC(=O)O)CCN(CC(=O)O)CCN(CC(=O)O)CC1)C(=O)NCCCCc1cccc(C#Cc2cncc([C@H](CC(=O)O)NC(=O)[C@@H]3CCCN(C(=O)CCC4CCNCC4)C3)c2)c1)N1CCN(CC(=O)O)CCN(CC(=O)O)CCN(CC(=O)O)CC1 (stereo partly drawn) [Example 1, Octagadolinium 2,3-bis-{[2,3-bis({2,3-bis[(N-{2-[4,7,10-tris(carboxylatomethyl)-1,4,7,10-tetraazacyclododecan-1-yl]propanoyl}glycyl)amino]propanoyl}amino)propanoyl]amino}-N-(4-{3-[(5-{(1S)-2-carboxy-1-[({(3R)-1-[3-(piperidin-4-yl)propanoyl]piperidin-3-yl}carbonyl)amino]ethyl}pyridin-3-yl)ethynyl]phenyl}butyl)propanamide]
IC50 [1]: 40 nM
MRI signal intensity of incubated in vitro thrombus versus control thrombus ([2]; 0.1 μmol substance/L (0.8 μmol Gd/L) in human plasma): clearly higher signal than the control thrombi
MRI signal intensity of incubated in vitro thrombus versus control thrombus ([2]; 10 μmol substance/L in human plasma): clearly higher signal than the control thrombi
Gadolinium concentration ([3]; blood): 3.3 ± 0.7 (n = 5) μM Gd
Gadolinium concentration ([3]; left carotis): 9.4 ± 0.4 (n = 4) μM Gd
Gadolinium concentration ([3]; right carotis): 4.3 ± 0.7 (n = 4) μM Gd
Gadolinium concentration ([3]; right jugular vein): 4.0 μM Gd
Gadolinium concentration ([3]; thrombus left carotis): 29.3 μM Gd
thrombus/blood ratio ([3]; thrombus left carotis): 8.9
Gadolinium concentration ([3]; thrombus right carotis): 41.0 μM Gd
thrombus/blood ratio ([3]; thrombus right carotis): 12.4
Concentration within platelet pellet ([4]; incubation concentration 0.1 μM molecule, incubation time 20 min): 28.2 ± 1.8 μM Gd
Concentration within platelet pellet [4, 5]: 32.7 ± 7.8 μM Gd
pellet/supernatant [4, 5]: 131 ± 36
Concentration within platelet pellet [4, 6]: 28.8 ± 2.2 μM Gd
pellet/supernatant [4, 6]: 108 ± 18
Concentration within platelet pellet [4, 7]: 35.9 ± 1.6 μM Gd
pellet/supernatant [4, 7]: 81 ± 5
